According to paper PMC7797213, “Vascular effects of serelaxin in patients with stable coronary artery disease: a randomized placebo-controlled trial” (Cardiovascular Research, 2020):

Experiments:
Format in all cases: in vivo, human
[1] = tested on: patients with stable coronary artery disease; test: CMR left and right ventricular volumes and ejection fraction
Source text: A standardized CMR protocol was acquired on 1.5 T (Siemens Avanto) or 3.0 T (Siemens Skyra and Verio) magnetic resonance imaging (MRI) scanners. The CMR protocol included standard localizers, long- and short-axis cine acquisitions, stress and rest first-pass perfusion, and late gadolinium enhancement (LGE) imaging as previously described.[24] For perfusion imaging, a saturation recovery prepared fast gradient echo sequence was used to acquire dynamic contrast-enhanced CMR during adenosine stress (140–280 µg/kg/min for 3 min) and rest, during first-pass of the IV administered contrast agent (Gadovist, 0.05 mmol/kg, 5 mL/s), followed by 20 mL saline injection (5 mL/s). Three short-axis planes through the left ventricle (basal, mid-ventricular, and apical) were obtained. […]
CMR image collection, blinding, and handling were managed by an independent imaging contract-research organization (CRO; VirtualScopics, Inc., Rochester, NY, USA). The CMR quantitative analyses were performed by blinded academic readers with >3 years of CMR experience (D.C., A.R., and C.B.). […] Global MPR was calculated from the ratio of global MBF evaluated at stress and at rest (MPR = stress MBF/rest MBF). Global MBF was calculated by averaging the MBF (mL/g/min) for basal, mid, and apical short-axis left ventricular slices. […] The presence or absence of myocardial scar was qualitatively assessed on the LGE images.

[2] = tested on: patients with stable coronary artery disease; test: Aortic MRI measurements of arterial stiffness (strain, distensibility, peak flow velocity); conditions: for Ascending aorta distensibility / Ascending aorta strain / Descending aorta distensibility / Descending aorta strain / Peak flow velocity: mean ± SD
Procedure: Full left ventricular short-axis stack of cine images was acquired during the interval between stress and rest first-pass perfusion acquisitions. Following administration of the top-up contrast dose (Gadovist 0.05 mmol/kg), aortic cine and phase-velocity encoding sequences were acquired at the level of the pulmonary artery bifurcation. LGE imaging was performed with a segmented phase-sensitive inversion recovery sequence.
CMR image collection, blinding, and handling were managed by an independent imaging contract-research organization (CRO; VirtualScopics, Inc., Rochester, NY, USA). The CMR quantitative analyses were performed by blinded academic readers with >3 years of CMR experience (D.C., A.R., and C.B.). Cine images for ventricular volumes and mass and myocardial perfusion images were manually contoured (QMass, Medis, Leiden, Netherlands). Myocardial blood flow (MBF) was derived from stress and rest perfusion images using a Fermi deconvolution method,[25] implemented in MATLAB.[26] Global MPR was calculated from the ratio of global MBF evaluated at stress and at rest (MPR = stress MBF/rest MBF). Global MBF was calculated by averaging the MBF (mL/g/min) for basal, mid, and apical short-axis left ventricular slices. Ascending and descending aortic strain and distensibility were derived from manually contoured end-diastolic and end-systolic aortic cine images. Aortic strain (AS, unit free fraction) = [maximum aortic lumen area − minimum aortic lumen area]/minimum aortic lumen area. Aortic distensibility (AD, mmHg^−^1) = aortic strain/pulse pressure. Ascending aortic peak flow velocity (m/s) was derived from manually contoured phase-velocity encoding sequence images (QFlow, Medis, Leiden, Netherlands). The presence or absence of myocardial scar was qualitatively assessed on the LGE images.
Model: Change from baseline was analysed using ANCOVA model including treatment as fixed effect and baseline as continuous covariate.

[3] = Immunogenicity: serum anti-serelaxin antibodies; conditions: Day 1 (baseline) and Day 30, all patients
Procedure: Blood was collected on Day 1 (baseline) and post-dose on Day 30 for assessment of immunogenicity. Serum anti-serelaxin antibody concentrations were evaluated using a validated four-tiered assay approach for antibody screening, confirmation, titration, and neutralizing antibody detection, when applicable.

[4] = baseline to day 3, ANCOVA, n=23

Serelaxin
Left and right ventricular volumes and ejection fractions, change from baseline compared with placebo ([1]; baseline to 47 h, CMR): no statistically significant changes | Left ventricular ejection fraction, mean value ([1]; remained in the normal range, no significant changes with serelaxin treatment): 63% | Ascending aorta distensibility ([2]; 0 h (pre-dose baseline), n=24): 0.002 ± 0.002 (24) mm/Hg | Ascending aorta strain ([2]; 0 h (pre-dose baseline), n=24): 0.12 ± 0.06 (24) | Descending aorta distensibility ([2]; 0 h (pre-dose baseline), n=24): 0.002 ± 0.001 (24) mm/Hg | Descending aorta strain ([2]; 0 h (pre-dose baseline), n=24): 0.16 ± 0.06 (24) | Peak flow velocity ([2]; 0 h (pre-dose baseline), n=24): 128.00 ± 66.69 (24) cm/sec | Ascending aorta distensibility ([2]; 47 h post-dose, n=23): 0.002 ± 0.001 (23) mm/Hg | Ascending aorta strain ([2]; 47 h post-dose, n=23): 0.12 ± 0.06 (23) | Descending aorta distensibility ([2]; 47 h post-dose, n=23): 0.002 ± 0.001 (23) mm/Hg | Descending aorta strain ([2]; 47 h post-dose, n=23): 0.17 ± 0.05 (23) | Peak flow velocity ([2]; 47 h post-dose, n=23): 127.98 ± 60.76 (23) cm/sec | CMR-derived parameters of aortic stiffness, change from baseline to 47 h compared with placebo ([2]; ascending/descending aorta strain and distensibility, ascending aortic peak flow velocity, P > 0.05 for all): no significant change | Ascending aorta distensibility, adjusted mean difference serelaxin versus placebo ([2]; baseline to day 3, ANCOVA): -0.0001 mm/Hg | Ascending aorta strain, adjusted mean difference serelaxin versus placebo ([2]; baseline to day 3, ANCOVA): 0.01 | Descending aorta distensibility, adjusted mean difference serelaxin versus placebo ([2]; baseline to day 3, ANCOVA): -0.0001 mm/Hg | Descending aorta strain, adjusted mean difference serelaxin versus placebo ([2]; baseline to day 3, ANCOVA): 0.01 | Peak flow velocity, adjusted mean difference serelaxin versus placebo ([2]; baseline to day 3, ANCOVA): 13.71 cm/sec | Ascending aorta distensibility, change from baseline (adjusted mean) [2, 4]: -0.0001 mm/Hg | Ascending aorta strain, change from baseline (adjusted mean) [2, 4]: 0.01 | Descending aorta distensibility, change from baseline (adjusted mean) [2, 4]: 0.0001 mm/Hg | Descending aorta strain, change from baseline (adjusted mean) [2, 4]: 0.011 | Peak flow velocity, change from baseline (adjusted mean) [2, 4]: 10.12 cm/sec | Anti-serelaxin antibody status [3]: anti-serelaxin antibody negative
